“Also recorded” adds a separate entry of the source.
Experiments:
[1] = tested on: posterior cerebral arteries; experiment: Myogenic tone of isolated posterior cerebral arteries after in vivo treatment; set-up: species or system mouse
Description: Myocardial infarction: HF was induced by surgical ligation of the left anterior descending coronary artery (3). Briefly, mice were anaesthetized with isoflurane, intubated with a 20-gauge angiocatheter and ventilated with room air. Under sterile conditions, the thorax and pericardium were opened, and the left anterior descending coronary artery was permanently ligated with 7-0 silk suture (Deknatel: Fall River, USA). In sham-operated controls, the thorax and pericardium were opened, but the left anterior descending coronary artery was not ligated. Following the procedure, the chest was closed and the mice were extubated upon spontaneous respiration. Posterior cerebral arteries (PCAs) were isolated 4-6 weeks post-infarction. […]
Myogenic responses were elicited by step-wise 20 mmHg increases in transmural pressure from 20 mmHg to 80 mmHg (olfactory arteries) or 100 mmHg (posterior cerebral arteries and cremaster skeletal muscle resistance arteries). At each pressure step, vessel diameter (diaactive) was measured once a steady state was reached (5 min). Vessels requiring treatment (e.g., CFTR(inh)-172) were incubated with the reagent in MOPS for 30 min and myogenic responses were then assessed in the presence of that reagent. Following completion of all diaactive measurements, MOPS buffer was replaced with a Ca^2+-free version and maximal passive diameter (diamax) was recorded at each pressure step.
Myogenic tone was calculated as the percent constriction in relation to the maximal diameter at each respective transmural pressure: tone (% of diamax)=[(diamax−diaactive)/diamax]×100, where diaactive is the vessel diameter in MOPS containing Ca^2+ and diamax is the diameter in Ca^2+-free MOPS. Analyses of vasomotor responses to phenylephrine used the same calculation, only in this case, diaactive represents the vessel diameter at steady state following application of the given agent and diamax represents the maximal diameter measured under Ca^2+-free conditions.

CFTR [2] = biological target: T1, CFTR (Mus musculus, UniProt P26361); experiment: CFTR protein in cerebral arteries of mice with heart failure; assay type: in vivo; set-up: Cerebral artery lysates were prepared by grinding artery samples in lysis buffer; from tissue; host or cells: cerebral arteries of male wild-type C57BL/6N mice (naïve, heart failure or subarachnoid hemorrhage models); details: 6 weeks post-ligation, 3 mg/kg daily for 2 days
Description: Western blots for CFTR were completed as previously described (12, 18). Cerebral artery lysates were prepared by grinding artery samples in lysis buffer containing 50 mM Tris (pH 7.3), 150 mM NaCl, 2 mM […], 0.1% Triton-X-100, 0.1% […] and protease inhibitors; the same lysis buffer was used to prepare cell culture lysates. Following lysis, the samples were centrifuged (10 minutes at 13,500 g; at 4° C.) to remove insoluble material. Immediately prior to polyacrylamide electrophoresis, additional SDS (to 2% final concentration), glycerol (to 2% final concentration), β-mercaptoethanol (to 2% final concentration) and dithiothreitol (2 mM final concentration) were added. Proteins were separated electrophoretically on 7% acrylamide gels and transferred onto polyvinylidene difluoride (PVDF) membranes. […]
The primary antibodies were conjugated with either peroxidase-labeled donkey anti-rabbit IgG (GE Healthcare Amersham (Piscataway, USA) cat# NA934) or peroxidase-labeled goat anti-mouse IgG (GE Healthcare Amersham cat# NA931) secondary antibodies. […] Developed films were evaluated densitometrically using “Image J” software (freely available from the NIH); digital images were evaluated with Image Lab software (Bio-Rad). […]

CFTR [3] = biological target: T1, CFTR; experiment: CFTR protein expression in TNF-treated mesenteric artery primary vascular smooth muscle cells; assay type: cell-based; set-up: mesenteric artery segments were isolated, cut into small pieces and digested with trypsin, collagenase and elastase; endogenous in cells; host or cells: primary mesenteric artery vascular smooth muscle cells; details: 48 h TNF 10 ng/ml + C18 6 μmol/L for last 24 h
Description: Procedures for isolating and culturing mesenteric artery smooth muscle cells were carried out as described in (10). Briefly, mesenteric artery segments were isolated, cut into small pieces and digested with trypsin, collagenase and elastase. The resulting cell suspension was washed several times in phosphate-buffered saline and plated in Dulbecco's Modified Eagle Medium (DMEM) culture media containing 10% fetal bovine serum and 1% penicillin-streptomycin. Cell cultures were maintained at 37° C. with 5% CO2 and split at […] cells seeding density. Baby hamster kidney fibroblast cells stably expressing wild-type human CFTR (10,17) were maintained in DMEM/F12 media containing 5% fetal bovine serum and 250 μmol/L methotrexate (which activates the CFTR transgene promoter). Cells were maintained under standard cell culture conditions at 37° C. with 5% CO2.
Western blots for CFTR were completed as previously described (12, 18). […]
The primary antibodies were conjugated with either peroxidase-labeled donkey anti-rabbit IgG (GE Healthcare Amersham (Piscataway, USA) cat# NA934) or peroxidase-labeled goat anti-mouse IgG (GE Healthcare Amersham cat# NA931) secondary antibodies. […] Developed films were evaluated densitometrically using “Image J” software (freely available from the NIH); digital images were evaluated with Image Lab software (Bio-Rad).

[4] = tested on: mice with subarachnoid hemorrhage; experiment: Modified Garcia neurological score in subarachnoid hemorrhage mice; assay type: in vivo, mouse; details: SAH mice, 2 days post-SAH, maximum score 18, 3 mg/kg daily for 2 days
Description: Neurological Function Assessment: Neurological function was assessed utilizing the modified Garcia score, as previously described (6). The neurological assessment consists of 6 domains: spontaneous activity, spontaneous movement of all 4 limbs, forepaw outstretching, climbing, body proprioception and response to vibrissae touch. Two blinded observers conducted the neurological assessment 2 days after SAH. The maximum score is 18, indicative of normal neurological function.

T1 sequence (P26361 whole entry): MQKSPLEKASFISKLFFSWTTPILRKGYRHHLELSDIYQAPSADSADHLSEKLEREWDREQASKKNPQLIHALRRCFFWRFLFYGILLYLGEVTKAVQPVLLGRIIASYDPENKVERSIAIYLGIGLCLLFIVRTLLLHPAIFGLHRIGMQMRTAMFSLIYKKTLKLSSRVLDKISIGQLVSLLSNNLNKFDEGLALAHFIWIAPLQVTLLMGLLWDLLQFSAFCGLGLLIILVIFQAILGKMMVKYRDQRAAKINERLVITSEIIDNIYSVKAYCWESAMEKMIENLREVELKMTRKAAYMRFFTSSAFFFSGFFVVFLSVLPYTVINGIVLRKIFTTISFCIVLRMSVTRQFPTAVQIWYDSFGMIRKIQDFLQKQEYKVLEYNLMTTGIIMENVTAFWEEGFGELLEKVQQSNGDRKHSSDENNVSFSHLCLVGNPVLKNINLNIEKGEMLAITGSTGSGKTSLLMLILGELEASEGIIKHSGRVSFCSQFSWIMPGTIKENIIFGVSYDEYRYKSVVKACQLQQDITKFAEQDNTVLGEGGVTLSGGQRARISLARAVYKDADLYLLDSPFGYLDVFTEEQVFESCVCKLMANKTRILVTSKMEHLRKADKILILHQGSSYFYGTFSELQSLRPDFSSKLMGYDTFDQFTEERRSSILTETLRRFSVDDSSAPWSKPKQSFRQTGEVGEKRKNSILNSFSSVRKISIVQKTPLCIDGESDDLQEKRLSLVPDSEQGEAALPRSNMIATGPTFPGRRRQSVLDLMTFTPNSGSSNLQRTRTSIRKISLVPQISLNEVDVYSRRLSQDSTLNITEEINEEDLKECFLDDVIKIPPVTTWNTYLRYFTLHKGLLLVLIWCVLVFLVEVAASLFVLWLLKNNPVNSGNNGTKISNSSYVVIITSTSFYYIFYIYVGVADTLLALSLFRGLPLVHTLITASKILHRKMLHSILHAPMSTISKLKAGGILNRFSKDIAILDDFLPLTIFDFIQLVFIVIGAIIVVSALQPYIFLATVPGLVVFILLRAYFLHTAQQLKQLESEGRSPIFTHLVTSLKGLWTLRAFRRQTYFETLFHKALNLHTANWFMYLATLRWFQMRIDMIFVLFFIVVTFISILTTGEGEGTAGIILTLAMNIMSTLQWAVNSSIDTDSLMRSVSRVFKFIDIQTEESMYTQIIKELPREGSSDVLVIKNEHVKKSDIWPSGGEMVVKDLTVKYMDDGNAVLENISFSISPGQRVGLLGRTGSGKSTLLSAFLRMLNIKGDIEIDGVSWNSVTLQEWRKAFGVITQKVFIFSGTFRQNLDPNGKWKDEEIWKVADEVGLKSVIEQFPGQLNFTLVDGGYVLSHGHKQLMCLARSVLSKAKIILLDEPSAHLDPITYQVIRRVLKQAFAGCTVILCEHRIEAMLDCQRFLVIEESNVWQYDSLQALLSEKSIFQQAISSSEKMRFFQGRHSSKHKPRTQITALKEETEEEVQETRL

## O=C(Nc1ncc(C(c2ccccc2Cl)N2CCC(O)C2)s1)C1(c2ccc3c(c2)OCO3)CC1 (stereo not drawn) [C18, 1-(benzo[d][1,3]dioxol-5-yl)-N-(5-((2-chlorophenyl)(3-hydroxypyrrolidin-1-yl)methyl)thiazol-2-yl)cyclopropanecarboxamide]
[1]; arteries from CFTR knockout mice, in vivo 3 mg/kg daily for 2 days
  posterior cerebral artery myogenic tone: not susceptible; also recorded: not observed
[1]; arteries from HF mice, in vivo 3 mg/kg daily for 2 days
  posterior cerebral artery myogenic tone: normalizes; also recorded: reduces
[1]; arteries from sham-operated mice, in vivo 3 mg/kg i.p. daily for 2 days
  posterior cerebral artery myogenic tone: does not affect; also recorded: does not alter
CFTR [2]
  cerebral artery CFTR protein expression in HF: restores; also recorded: eliminates this reduction
CFTR [3]
  CFTR protein expression after TNF down-regulation: reverses the decline; also recorded: fully restores
[4]
  Modified Garcia score (neurological function): comparable to sham-operated mice; also recorded: restores the neurological score to the sham level
